Data on ten compounds can be found in US8604217B2, “Compound, a process for its preparation, a pharmaceutical composition, use of a compound, a method for modulating or regulating serine/threonine kinases and a serine/threonine kinases modulating agent” (Selvita S.A., priority 2009, dated 2013).

The target in one test is PIM-1 (Homo sapiens (Human), UniProt P11309). Nature of the test: Luminometric kinase assay for PIM1 kinase (Kinase-Glo). The test is classed as biochemical. Conditions: 1 μM ATP, 25 min at RT. The procedure:
Kinase assay was performed using luminescent Kinase-Glo® (Promega) system. The Kinase-Glo® Luminescent Kinase Assay Platform provides a homogeneous, high-throughput screening method for measuring kinase activity by quantifying the amount of ATP remaining in solution following a kinase reaction. The luminescent signal is correlated with the amount of ATP present and is inversely correlated with the kinase activity. Appropriate amounts of both kinase and substrate were mixed in 96-well, white wall plate in the reaction buffer (8 mM MOPS/NaOH, pH7.0, 0.2 mM EDTA, 2 mM MgCl2). Tested compounds were diluted in DMSO and serial dilutions starting with 1 μM were added to the palates. Reaction was initiated by adding 1 μM of ATP solution and conducted for 25 min. at RT. Luminescent signal was detected by adding Kinase-Glo® reagent and measured using a microplate spectrophotometer (Synergy 2 multi-mode microplate reader (BioTek)). IC50 values were obtained by fitting sigmoidal dose-response curve (variable slope) using GraphPad Prism software.
Background: In Kinase-Glo more light means more ATP remaining.

Test [1] relates to human colorectal adenocarcinoma SW480 cells. Kind of test: Growth inhibition test (MTS) on SW480 cells. The test is classed as cell-based. Conditions: read-out: SW480 ED50. The procedure: (§1) Two thousand cells of human colorectal adenocarcinoma SW480 were inoculated into each well of a 96-well microplate (manufactured by Corning Corp.), and using DMEM/Ham's F121:1 medium (culture medium) containing 5% fetal calf serum (FCS). Next day, a dimethyl sulfoxide (DMSO) solution of each test compound prepared in a concentration of 10 mmol/L was further diluted with culture medium to the desired concentrations (0.1, 0.5, 1, 2.5, 5 and 10 micromol/L), and the diluted solution was added to each well. The individual wells were further cultured in 5% carbon dioxide at 37° C. for 72 hours. After completion of the culture, 10 μl MTS (3-(4,5-Dimethyl-2-thiazolyl)-5-(carboxymethoxyphenyl)-2-(4-sulfophenyl)-2H-tetrazolium, inner salt assay (CellTiter96® AQueous One Solution Cell Proliferation Assay, Promega) was added to each well, and culturing was performed in 5% carbon dioxide at 37° C. for 2 hours. Using a microplate spectrophotometer (Synergy 2 multi-mode microplate reader (BioTek)), the absorbance of each well was measured at 490 nm. The value for cells not incorporated with a test compound was designated as 100%. By comparing these values with the absorbance difference obtained at the well in which each test compound was added, the cell viability (% viability) after treatment with the test compound was calculated.

Test [2] deals with human hepatoma HepG2 cells. Kind of test: Growth inhibition test (MTS) on HepG2 cells. The test is classed as cell-based. Conditions: 72 hours, read-out: HepG2 ED50. The procedure:
as §1, with “human hepatoma HepG2” for “human colorectal adenocarcinoma SW480”, “Corning Corp.)” for “Corning Corp.), and”, “using DMEM” for “using DMEM/Ham's F121:1”, “containing 10%” for “containing 5%”

The subject of test [3] is human acute lymphocytic leukemia E6.1 Jurkat cells. Nature of the test: Growth inhibition test (MTS) on E6.1 Jurkat cells. The settings on record: 72 hours, read-out: Jurkat ED50. The class given is cell-based. As to the method: as §1, with “Twenty thousand” for “Two thousand”, “human acute lumphocytic leukemia E6.1 Jurkat” for “human colorectal adenocarcinoma SW480”, “Corning Corp.)” for “Corning Corp.), and”, “using […]” for “using DMEM/Ham's F121:1”, “containing 10%” for “containing 5%”

Test [4] relates to human myelomonocytic, biphenotypic leukemia MV4-11 cells. Nature of the test: Growth inhibition test (MTS) on MV4-11 cells. The class given is cell-based. Conditions: read-out: MV-4-11 ED50. The procedure:
as §1, with “Ten thousand” for “Two thousand”, “human myelomonocytic, biphenotypic leukemia MV4-11” for “human colorectal adenocarcinoma SW480”, “Corning Corp.)” for “Corning Corp.), and”, “using Iscove's MDM” for “using DMEM/Ham's F121:1”, “containing 10%” for “containing 5%”

Test [5] deals with human breast adenocarcinoma MCF7 cells. Nature of the test: Growth inhibition test (MTS) on MCF7 cells. The settings on record: read-out: MCF-7 ED50. The test is classed as cell-based. The procedure:
as §1, with “human breast” for “human colorectal”, “adenocarcinoma MCF7” for “adenocarcinoma SW480”, “using DMEM” for “using DMEM/Ham's F121:1”, “containing 10%” for “containing 5%”

The subject of test [6] is human prostate adenocarcinoma PC3 cells. Kind of test: Growth inhibition test (MTS) on PC3 cells. The class given is cell-based. The settings on record: for IC50: Homo sapiens, PC-3, 72 hours, read-out: PC-3 ED50.
From the text: as §1, with “human prostate” for “human colorectal”, “adenocarcinoma PC3” for “adenocarcinoma SW480”, “using F12K (Ham's F12:[…] 1:1)” for “using DMEM/Ham's F121:1”, “containing 10%” for “containing 5%”

Read-outs that look alike come from different tables or passages of the source.

PIM-1, sequence (P11309 whole entry): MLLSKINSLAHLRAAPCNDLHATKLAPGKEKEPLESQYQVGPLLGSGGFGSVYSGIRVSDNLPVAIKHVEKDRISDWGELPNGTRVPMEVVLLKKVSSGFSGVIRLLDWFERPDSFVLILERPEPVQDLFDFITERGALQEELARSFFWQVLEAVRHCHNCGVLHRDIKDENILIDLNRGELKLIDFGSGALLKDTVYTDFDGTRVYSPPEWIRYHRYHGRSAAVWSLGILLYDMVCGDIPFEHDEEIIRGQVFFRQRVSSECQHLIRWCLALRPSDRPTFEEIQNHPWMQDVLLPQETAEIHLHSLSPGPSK

For the compound `Brc1c(Br)c(Br)c2[nH]c(NCCN3CCOCC3)nc2c1Br` [Compound 16, 4,5,6,7-tetrabromo-N-(2-morpholinoethyl)-1H-benzo[d]imidazol-2-amine], the IC50 on PIM-1 is 0.107 µM; in test [1] (72 hours), 9.68 µM; in test [2], 8.78 µM.

Consider `Brc1c(Br)c(Br)c2[nH]c(N3CCOCC3)nc2c1Br` [Compound 19, 4,5,6,7-tetrabromo-2-morpholino-1H-benzo[d]imidazole], for which the IC50 in test [3] was determined as 4.63 µM; on PIM-1 it was 0.0294 µM; in test [4] (Homo sapiens, MV4-11, 72 hours), 6.83 µM.

Take `Brc1c(Br)c(Br)c2[nH]c(NCCCN3CCCC3)nc2c1Br` [Compound 58]: the IC50 in test [3] stood at 3.37 µM; at PIM-1, 0.0257 µM; in test [2], 2.93 µM; in test [4] (Homo sapiens, MV4-11, 72 hours), 1.54 µM.

Regarding `CN(C)CCCN1CCN(c2nc3c(Br)c(Br)c(Br)c(Br)c3[nH]2)CC1` [Compound 75, 3-(4-(4,5,6,7-tetrabromo-1H-benzo[d]imidazol-2-yl)piperazin-1-yl)-N,N-dimethylpropan-1-amine], the IC50 in test [3] came to 7.79 µM; on PIM-1, 0.279 µM; in test [2], 5.85 µM; in test [4] (Homo sapiens, MV4-11, 72 hours), 3.33 µM.

As for `CN(C)CCCN(Cc1ccccc1)c1nc2c(Br)c(Br)c(Br)c(Br)c2[nH]1` [Compound 85, N-benzyl-4,5,6,7-tetrabromo-N-(3-(dimethylamino)propyl)-1H-benzo[d]imidazol-2-amine], the IC50 is 0.0653 µM on PIM-1; 2.84 µM in test [2]; 4.12 µM in test [5] (Homo sapiens, MCF7, 72 hours); 5.84 µM in test [6]; 2.66 µM in test [4] (Homo sapiens, MV4-11, 72 hours).

Regarding `Oc1ccc(CCNc2nc3c(Br)c(Br)c(Br)c(Br)c3[nH]2)cc1` [Compound 243, 4-(2-(4,5,6,7-tetrabromo-1H-benzo[d]imidazol-2-ylamino)ethyl)phenol], the IC50 in test [3] is 6.12 µM; in test [2], 9 µM; in test [4] (Homo sapiens, MV4-11, 72 hours), 6.84 µM.

As for `Brc1c(Br)c(Br)c2[nH]c(N3CCN4CCC3CC4)nc2c1Br` [Compound 350, 2-(4,5,6,7-tetrabromo-1H-benzo[d]imidazol-2-yl)-2,5-diaza-bicyclo[3.2.2]nonane], the IC50 on PIM-1 worked out at 0.0327 µM; in test [2] it was 5.55 µM; in test [5] (Homo sapiens, MCF7, 72 hours) it was 6.55 µM; in test [6], 8.48 µM; in test [4] (Homo sapiens, MV4-11, 72 hours), 5.52 µM.

As for `OCCCN1CCN(c2nc3c(Br)c(Br)c(Br)c(Br)c3[nH]2)CC1` [Compound 383, 3-(4-(4,5,6,7-tetrabromo-1H-benzo[d]imidazol-2-yl)piperazin-1-yl)propan-1-ol], the IC50 was 0.0944 µM on PIM-1; 3.72 µM in test [1] (Homo sapiens, SW480, 72 hours); 7.12 µM in test [2]; 8.32 µM in test [5] (Homo sapiens, MCF7, 72 hours); 8.3 µM in test [6]; 3.43 µM in test [4] (Homo sapiens, MV4-11, 72 hours).

Take `Brc1c(Br)c(Br)c2[nH]c(N3CCN(Cc4cn5ccccc5n4)CC3)nc2c1Br` [Compound 387, 2-(4-((H-imidazo[1,2-a]pyridin-2-yl)methyl)piperazin-1-yl)-4,5,6,7-tetrabromo-1H-benzo[d]imidazole]: the IC50 amounted to 3.27 µM in test [1] (72 hours), 9.25 µM in test [5] (72 hours) and 2.13 µM in test [4] (72 hours). Besides, the “PC-3 ED50” value in test [6] (72 hours) turned out to be 5.49 µM.

As to `N=C(N)N1CCN(c2nc3c(Br)c(Br)c(Br)c(Br)c3[nH]2)CC1` [Compound 392, 4-(4,5,6,7-tetrabromo-1H-benzo[d]imidazol-2-yl)piperazine-1-carboxamidine], the IC50 on PIM-1 is 0.00672 µM; in test [1] (Homo sapiens, SW480, 72 hours), 1.85 µM; in test [6], 4.48 µM; in test [4] (Homo sapiens, MV4-11, 72 hours), 7.55 µM.
